Measurements as given in article PMC6562366 (Molecular Therapy Oncolytics, 2019).

Biological target: PIM-2 (Homo sapiens, UniProt Q9P1W9)
Experiment: radiometric filter-binding kinase assay, recombinant kinase, dose-response
Assay type: biochemical

Sequence of PIM-2 (Q9P1W9 whole entry): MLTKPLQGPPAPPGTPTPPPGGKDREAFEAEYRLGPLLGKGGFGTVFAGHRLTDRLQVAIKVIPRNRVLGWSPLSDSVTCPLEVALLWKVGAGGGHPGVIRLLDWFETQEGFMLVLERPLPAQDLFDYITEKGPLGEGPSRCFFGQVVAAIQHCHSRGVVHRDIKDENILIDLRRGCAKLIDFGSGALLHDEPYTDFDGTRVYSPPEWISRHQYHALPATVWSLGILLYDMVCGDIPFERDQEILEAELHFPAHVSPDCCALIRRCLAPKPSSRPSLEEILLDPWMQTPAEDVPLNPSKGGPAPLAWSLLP

- IC50: 255 µM
Compound: C/C(O)=C(\C#N)C(=O)Nc1ccc(C(F)(F)F)cc1 [Ter, Teriflunomide]
